From paper PMC11013143, “4-Chloroisocoumarins as Chlamydial Protease Inhibitors and Anti-Chlamydial Agents” (Molecules, 2024)
Like-named read-outs stand apart in the source and are kept apart here.

Experiments:
[1] = target: T1, Human Leukocyte Elastase (HLE) (Homo sapiens, UniProt P08246); experiment: HLE protease inhibition assay; format: biochemical; conditions: for Relative Potency against HLE: [IC50 of JO146]/[IC50 test compound]
T1 construct: purchased Athens Research and Technology 16-15-051200
T1 sequence (P08246 30-247 limits assumed): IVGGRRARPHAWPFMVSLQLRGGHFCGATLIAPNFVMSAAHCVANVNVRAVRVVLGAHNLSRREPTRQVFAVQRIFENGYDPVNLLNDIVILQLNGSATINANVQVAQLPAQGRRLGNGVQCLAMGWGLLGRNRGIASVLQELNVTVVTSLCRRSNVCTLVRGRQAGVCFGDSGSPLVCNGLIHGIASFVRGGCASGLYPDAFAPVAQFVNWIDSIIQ
Experimental: Elastase was purchased from Athens Research and Technology (Cat No. 16-15-051200). Elastase (100 µg) was dissolved in Tris buffer (100 mM Tris, 20 mM CaCl2, pH 8.1, 3.14 mL), giving a concentration of 1.117 µM, and 25 µL was added to each well containing the respective inhibitor. The plate was incubated at 37 °C for 15 min.
N-Suc-AAA-pNA (Sigma Aldrich, Bayswater, Australia, S4760, 100 µL, 1 mg/mL, […]) was added to each well, and the absorbance was monitored every six minutes at 405 nm. The rate of change of absorbance was used as a comparison to controls to determine the % inhibition of protein in Microsoft Excel^TM (v2402), and these values were exported to GraphPad Prism (v8.0.1) for IC50 calculation.

HEp-2 cells = experiment: MTS cell viability assay, HEp-2 cells; format: cell-based, human; conditions: 62.5 and 31.25 µM, 24 h
Experimental: (§1) The cytotoxic effects of the 4-chloroisocoumarin compounds 2a–g and 6a–h (24 h) were tested against HEp-2 and McCoy B cells using the MTS cell viability assay. HEp-2 and McCoy B cells were selected, as these are routinely used for the cultivation of chlamydial species, and low cytotoxicity against host cells is required to evaluate the anti-chlamydial properties of a test compound [27].
(§2) HEp-2 (human epithelial type 2, CCL-23, ATCC®, Virginia, USA) or McCoy B (mouse fibroblast, CRL-1696, ATCC®) cells were grown to 80–100% confluence, and cell density was determined with a haemocytometer. Cells were then diluted to 1 × 10^5 cells/mL, and 100 µL was added to each well in a 96-well plate, with 3 wells left as controls. Cells were grown for 24 h, and the media was removed and then replaced with fresh media containing 0.1% DMSO and the drug for testing in triplicate. Drugs and cells were incubated for 24 h, and then 20 µL of MTS and PMS solution was added and then incubated for a further four hours. Absorbance was measured at 490 nm on a TECAN M200 Infinite plate reader and data were processed using Microsoft Excel^TM with the following equation to determine cell viability relative to DMSO controls. Cellviability%=AbsorbanceDrug−AbsorbanceDye/AbsorbanceDMSO−AbsorbanceDye

[2] = MTS cell viability assay, HEp-2 cells; format: cell-based, human; conditions: human, HEp-2 cells, 125 µM, read-out: HEp-2 cell viability, % of DMSO-treated control cells
Experimental: as §1, §2

CtHtrA [3] = target: T2, CtHtrA (Chlamydia trachomatis serovar D, UniProt P18584); experiment: CtHtrA protease inhibition assay; format: biochemical; conditions: for Relative Selectivity: (relative CtHtrA potency)/(relative HLE potency); for IC50: IC50 against CtHtrA; for IC50 / Relative Potency against CtHtrA: control JO146; for Relative Potency against CtHtrA: [IC50 of control]/[IC50 test compound]
T2 construct: made in house; host or cells: E. coli BL21(DE3), pET22b
T2 sequence (P18584 17-497): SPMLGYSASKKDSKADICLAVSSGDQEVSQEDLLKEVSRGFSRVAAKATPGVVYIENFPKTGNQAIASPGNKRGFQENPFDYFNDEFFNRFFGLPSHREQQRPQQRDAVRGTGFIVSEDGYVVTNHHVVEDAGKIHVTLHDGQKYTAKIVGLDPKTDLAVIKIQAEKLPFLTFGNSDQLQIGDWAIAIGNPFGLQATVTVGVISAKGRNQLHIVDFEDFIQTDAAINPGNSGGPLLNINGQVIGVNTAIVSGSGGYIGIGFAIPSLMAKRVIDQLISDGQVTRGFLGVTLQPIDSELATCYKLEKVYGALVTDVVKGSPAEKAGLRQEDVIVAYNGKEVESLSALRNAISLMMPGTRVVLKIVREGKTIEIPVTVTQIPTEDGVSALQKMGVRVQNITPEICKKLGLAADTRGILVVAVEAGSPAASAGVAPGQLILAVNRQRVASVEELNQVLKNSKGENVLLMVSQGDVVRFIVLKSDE
Experimental: The inhibitory activity of compounds 2a–g against CtHtrA was evaluated. […] As these compounds are reportedly covalent inhibitors of serine proteases, a true IC50 is unable to be calculated. Instead, the residual activity of the protease is monitored over time in response to a range of compound concentrations, and an IC50 value is interpolated from a dose–response curve (see Figures S2–S4 and Tables S1 and S2). This IC50 value is then compared to a positive control (JO146 was used for 2a–g, and 2g was used for 6a–h), giving the ‘relative potency’. This is the established method for assessing CtHtrA inhibitory potency. […] This effect may be due to depth restrictions within the S1 subpocket, as kinetic studies on the rates of protease inhibition in HLE were reduced by larger C-3 alkoxy substituents. Chain branching (iso-propyl and sec-butyl substituents) increased the activity, resulting in a 1.4-fold increase for 2e over 2b and a 2.8-fold improvement for 2g over 2c.
CtHtrA was expressed using an procedure adapted from the literature. Recombinant E. coli BL21(DE3) pET22b was grown in LB media containing 100 ug/mL ampicillin to an OD600 of 0.5-0.6 in 5 × 400 mL batches at 37 °C. Isopropyl β-D-1-thioglactopyranoside (1 M, 400 µL, 1 mM final concentration) was added to each flask and incubated at 30 °C with shaking at 150 rpm for an additional 2.5 h. The culture was centrifuged at 4000× g for 15 min at 4 °C, and the cell pellet was harvested and resuspended in lysis buffer (50 mM phosphate, 10 mM imidazole, 500 mM NaCl, 0.1% Triton X-100, 10% glycerol). Lysozyme was added to the suspended cells and was sonicated in 15 cycles of 15 s, with one minute between cycles while maintaining 4 °C, and then centrifuged at 8000× g for 20 min to remove any debris, retaining the supernatant for protein purification.
TALON® metal affinity resin (Takara cat no. 635652, 5 mL) was added to each lysate tube and washed sequentially with lysis buffer (2 × 45 mL) and stringency buffer (4 × 45 mL) and then eluted with elution buffer (2 × 5 mL), allowing incubations at 4 °C for 20 min per wash, and centrifuging at 2500× g and 4 °C between washes to pellet the resin. The eluates were dialyzed in Tris buffer (pH 7.0, 50 mM, 4 L) with magnesium chloride (20 mM) at 4 °C five times over 24 h, with a minimum of three hours per dialysis change. Protein expression and isolation were confirmed with SDS-PAGE Coomassie stained gel, which was examined for the band at the correct size, and a BCA assay to confirm purified protein concentration prior to use.
CtHtrA was added to 25 wells in a black 96-well plate (40–80 µL, 10 µL increments), to which Tris-HCl buffer (50 mM, pH 7.0 with 20 mM MgCl2) was added to bring the total volume to 90 µL for 10 wells and 85 µL for the remaining 15. JO146 (10 µM, 5 µL) was added to 5 wells and JO146 (1 µM, 5 µL) was added to another 5 wells, with DMSO (5 µL) being added to the remaining 5 as a control. The plate was incubated at 37 °C for 10 min before substrate (MCA-ENLHLPLPIIFK-DNP, 10 µL, 1 mg/mL, 50% isopropanol in buffer) was added and analyzed in a TECAN Infinite Pro M200 plate reader with an excitation wavelength of 340 nm and fluorescence measured at 405 nm with four reads per well at 60 s intervals. A minimum volume of CtHtrA granting a fluorescence change of 300 min^−1 was used for subsequent assay.
The determined appropriate volume of CtHtrA in buffer was added to a 96-well non-transparent black plate and diluted to 85 µL with buffer solution. Drug or control (5 µL) at a maximum of 20% DMSO/80% buffer was added to the appropriate well with DMSO controls, and the plate was incubated for 10 min to allow activation by the protein. MCA-ENLHLPLPIIFK-DNP (Mimotopes, Australia, 1 mg/mL, 10 µL) was added and immediately monitored on a TECAN M200 Infinite plate reader at 37 °C every 60 s for 30 min, using the same wavelengths as for the activity evaluation. […]

CtHtrA [4] = target: T2, CtHtrA; set-up: method as in PMID 23796320; conditions: read-out: IC50 against CtHtrA; reversible covalent complex with CtHtrA; cited from earlier work

Structure (SMILES) | IC50 ([1]; Table S1, variable slope four parameter fit, read-out: IC50 against HLE) [µM] | Relative Potency against HLE [1] | effect on HEp-2 cell viability (HEp-2 cells) | viability at 24 h, 125 µM [2] [%] | Relative Selectivity (CtHtrA [3]) | IC50 (CtHtrA [3]; Table S2, Batch 1) [µM] | Relative Potency against CtHtrA (CtHtrA [3]) | IC50 [1] [µM] | IC50 (CtHtrA [4]) [µM] | IC50 (CtHtrA [3]; Table S2, Batch 2) [µM]
COc1oc(=O)c2ccccc2c1Cl [Compound 2a, 3-Methoxy-4-chloroisocoumarin] | 39.5 | 0.0207 | did not produce significant effects | 50 | 113.0 | 30.6 | 2.33 |  |  | 
CC(C)[C@H](NC(=O)OC(C)(C)C)C(=O)N1CCCC1C(=O)N[C@@H](C(C)C)P(=O)(Oc1ccccc1)Oc1ccccc1 (some centres unmarked) [JO146, reference compound] |  | 1.00 |  |  | 1.00 | 71.5 | 1.00 | 0.817 | 12 | 60
